Twelve compounds from patent US6747050B1, “Isoxazoline derivative and a process for the preparation thereof” (LG Chem Investment Ltd., priority 1999, dated 2004) can be followed below.

Series [1] relates to W138 cells (human embryonal lung fibroblast). Put plainly: Protection from IFNγ and anti-Fas antibody-induced apoptosis (XTT). Type of series: cell-based. To be noted: IFNγ 200 units/ml + anti-Fas antibody 40 ng/well; for cell viability (control without Fas antibody = 100%): 50 μM, 50 µM; for viability at 0.4 µM / viability at 2 µM / viability at 10 µM / viability at 50 µM: Homo sapiens, read-out: cell viability (control without Fas antibody = 100%); for viability at 0.4 µM: W138, 0.4 μM; for viability at 2 µM: W138, 2 μM; for viability at 10 µM: W138, 10 μM; for viability at 50 µM: W138, 50 μM. As for the experimental part: W138 cells (human embryonal lung fibroblast) were grown in a medium containing DMEM-10% FBS within, 10 cm diameter dishes until reaching at confluency. The cells were seeded into a 24-well plate at day 1 and incubated overnight while the volume of medium was maintained to 400 μl. Cells were treated with 200 units/ml of IFNγ at day 2 and incubated over 12 hrs or more. At day 3, each 100 μl of test compound was added to the cells after diluting the 10 mM stock compound in DMSO to final concentrations of 50, 10, 2, and 0.4 μM, respectively. The cells were incubated for 2 hrs in order for allowing the compound to enter into the cells and then treated with 40 ng/well of anti-Fas antibody(apoptosis was induced 2 hrs after antibody was treated and the incubation was continued overnight). The control was not treated with Fas antibody. […] After coloring, 100-200 μl of the supernatant was transferred to a 96-well plate and the absorbance at 490 nm was read with ELISA plate reader. For the blank, XTT solution was added to the well continued the medium only. Plotting was determined by comparing with the control group (100% when Fas antibody was not treated).
(In general: Formazan colour is commonly taken as a measure of viable cells.)

Series [2] has as its target T1, caspase-1 (Homo sapiens, UniProt P29466).
T1 construct: made in house; host or cells: transformed bacterium (pET vector)
T1 sequence (P29466 120-297 limits assumed): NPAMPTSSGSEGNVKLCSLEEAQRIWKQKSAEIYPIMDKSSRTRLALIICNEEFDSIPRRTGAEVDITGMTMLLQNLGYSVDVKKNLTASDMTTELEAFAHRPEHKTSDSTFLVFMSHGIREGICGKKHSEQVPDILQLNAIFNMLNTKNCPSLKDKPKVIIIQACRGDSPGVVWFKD
T1 sequence (P29466 317-404 limits assumed): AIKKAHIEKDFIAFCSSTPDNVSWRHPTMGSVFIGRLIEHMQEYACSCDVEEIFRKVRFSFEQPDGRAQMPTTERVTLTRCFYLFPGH
Put plainly: Recombinant caspase enzyme inhibition, fluorogenic substrate Ac-YVAD-AMC. Type of series: biochemical. The note with it: Reversible Inhibitor. As for the experimental part:
In the present experiment recombinant caspases were purified from a transformed bacterium after human caspase genes were cloned into the expression vector pET, and then used in the experiment (Thornberry, N. A. et al. Nature, 1992, 356, 768. Thornberry, N. A. Methods in Enzymology, 1994, 615.).
Enzymatic activity was measured by a known procedure (Walker N. P. C. et al., Cell 1994, 78, 343). Briefly, 10 ng of recombinant protein was mixed with 50 mM Tris(pH 7.0), 1 mM DTT, 0.5 mM EDTA, 10% Glycerol buffer containing 1˜100 μM of enzyme substrate, Ac-YVAD-AMC or Ac-DEVD-AMC and then the changes by isolated AMC at 37° C. were recorded. The inhibitory activity for caspases was calculated from the early enzyme reaction rate by measuring the changes with fluorescence excited at […] and emitted at 460 nm (Range; Ki<100 nM).

Series [3] has as its system caspase-3-like activity (Ac-DEVD-pNA). Put plainly: Caspase-3-like activity in TNFα/ActD-treated primary rat hepatocytes. Type of series: cell-based. The note with it: 100 μM, 8 hrs. As for the experimental part:
Primary rat hepatocytes were isolated and purified from male Sprague-Dawley rats using a collagenase digestion method. The hepatocytes were purified over 30% Percoll gradient by centrifugation at 1,000×g for 10 min. at 4° C. […] The cells were plated on collagen-coated tissue culture plates at a density of 2×10^5 cells/well in 12-well plates for cell viability analysis or 5×10^6 cells/100 mm dish for enzyme assays. After 18 hrs preculture, the cells were treated with 2,000 units/ml TNFα and 0.2 μg/ml Actinomycin (ActD). Caspase activity and cell viability was determined by colorimetry using a caspase substrate Ac-DEVD-pNA and crystal violet staining method at 8 hrs and 12 hrs, respectively.

Take `CC(=O)[C@H](CC(=O)O)NC(=O)C1(COc2ccccc2)CC([C@@H](NC(=O)c2ccc3ccccc3n2)C(C)C)=NO1` (mixture of isomers) [Compound 22, (3S)-3-{3-[(1S)-1-(Quinoline-2-yl-carbonylamino)-2-methyl-propyl]-5-phenoxymethyl-4,5-dihydro-isoxazole-5-carbonylamino}-4-keto-pentanoic Acid]: in series [1], the “cell viability (control without Fas antibody = 100%)” value stood at 78.29%; the viability (usually a read-out of living cells in per cent, often relative to untreated cells) at 0.4 µM was 14.4%; the viability at 2 µM stood at 18.3%; the viability at 10 µM was determined as 35.4%. Also, the viability at 50 µM in series [1] turned out to be 78%. For `CC1(C(=O)N[C@@H](CC(=O)O)C(=O)COc2ccccc2)CC([C@H](CCC(=O)O)NC(=O)CCC(=O)O)=NO1` (mixture of isomers) [Compound 46, (3S)-3-{3-[(1S)-1-(Succinoylamino)-3-carboxy-propyl]-5-methyl-4,5-dihydro-isoxazole-5-carbonylamino}-4-keto-5-phenoxy-pentanoic Acid], the Ki (commonly the equilibrium dissociation constant of an inhibitor or competing ligand from its target) in series [2] came to 29.1 nM.

`CC(C)[C@H](NC(=O)CCC(=O)O)C1=NOC(C)(C(=O)N[C@@H](CC(=O)O)C(=O)COc2ccccc2)C1` (mixture of isomers) [Compound 47, (3S)-3-{3-[2-Methyl-(1S)-1-(succinoylamino)-propyl]-5-methyl-4,5-dihydro-isoxazole-5-carbonylamino}-4-keto-5-phenoxy-pentanoic Acid]: the Ki in series [2] was determined as 177 nM. In the case of `CCCC1(C(=O)N[C@@H](CC(=O)O)C(=O)COc2ccccc2)CC([C@@H](NC(=O)CCC(=O)O)C(C)C)=NO1` (mixture of isomers) [Compound 83, (3S)-3-{3-[2-Methyl-(1S)-1-(succinoylamino)-propyl]-5-propyl-4,5-dihydro-isoxazole-5-carbonylamino}-4-keto-5-phenoxy-pentanoic Acid], the Ki in series [2] was 969 nM. On the same count and under the same terms, with `CC(C)[C@H](NC(=O)CCC(=O)O)C1=NOC(C)(C(=O)N[C@@H](CC(=O)O)C(=O)COc2ccc3ccccc3c2)C1` (single isomer, unassigned) [Compound 81] the figure was 26900 nM; with `CC(C)[C@H](NC(=O)CCC(=O)O)C1=NOC(C)(C(=O)N[C@@H](CC(=O)O)C(=O)COc2ccc3ccccc3c2)C1` (single isomer, unassigned) [Compound 82], 530 nM. Regarding `CC(=O)N[C@@H](CC(=O)O)C(=O)N[C@@H](CCC(=O)O)C(=O)N[C@H](C(=O)N[C@H](C=O)CC(=O)O)C(C)C` [Ac-DEVD-CHO], the “caspase-3-like activity increased by TNFα/ActD (FIG. 15A)” value in series [3] is reported as “not different”. On to `CC(C)[C@H](NC(=O)c1ccc2ccccc2c1)C1=NOC(Cc2ccccc2)(C(=O)N[C@@H](CC(=O)O)C(=O)COC(=O)c2c(Cl)cccc2Cl)C1` (stereo partly drawn) [Compound 28, (3S)-3-{3-[(1S)-1-(Naphthalene-2-carbonylamino)-2-methyl-propyl]-5-phenylmethyl-4,5-dihydro-isoxazole-5-carbonylamino}-4-keto-5-(2,6-dichlorobenzoyloxy)-pentanoic Acid], for which, in series [1], the “cell viability (control without Fas antibody = 100%)” value is 90.39%, the viability at 0.4 µM came to 14.7%, the viability at 2 µM came to 17.3% and the viability at 10 µM amounted to 82.4%. For the same compound, the viability at 50 µM in series [1] was found to be 90%. Consider `CC(C)[C@H](NC(=O)c1ccc2ccccc2c1)C1=NOC(C(=O)N[C@@H](CC(=O)O)C(=O)COc2ccc3ccccc3c2)C1` (stereo partly drawn) [Compound 29, (3S)-3-{3-[(1S)-1-(Naphthalene-2-carbonylamino)-2-methyl-propyl]-4,5-dihydro-isoxazole-5-carbonylamino}-4-keto-5-(2-naphthyloxy)-pentanoic Acid], for which, in series [2], the Ki was found to be 0.324 nM. The same measure, in the same setting: the value for `CC(C)[C@H](NC(=O)c1ccc2ccccc2c1)C1=NOC(C(=O)N[C@@H](CC(=O)O)C(=O)COc2ccccc2)C1` (stereo partly drawn) [Compound 30, (3S)-3-{3-[2-Methyl-(1S)-1-(2-naphthalenecarbonylamino)-propyl]-4,5-dihydro-isoxazole-5-carbonylamino}-4-keto-5-phenoxy-pentanoic Acid] was 19.1 nM; that for `CC(C)[C@H](NC(=O)c1cccc2ccccc12)C1=NOC(Cc2ccccc2)(C(=O)N[C@@H](CC(=O)O)C(=O)CN2CCCCC2)C1` (stereo partly drawn) [Compound 48, (3S)-3-{3-[2-Methyl-(1S)-1-(1-naphtalenycarbonylamino)-propyl]-5-phenylmethyl-4,5-dihydro-isoxazole-5-carbonylamino}-4-keto-5-(1-piperidinyl)-pentanoic Acid] was 1.51 nM; that for `CC(C)[C@H](NC(=O)CCC(=O)O)C1=NOC(C)(C(=O)N[C@@H](CC(=O)O)C(=O)CN2CCCC2)C1` (stereo partly drawn) [Compound 78, (3S)-3-{3-[2-methyl-(1S)-1-(succinoylamino)-propyl]-5-methyl-4,5-dihydro-isoxazole-5-cabonylamino}-4-keto-5-(N-pyrrolidine)-pentanoic acid] was 63900 nM.
